Reference: ChEMBL document CHEMBL4842385, “Indirubin Derivatives as Dual Inhibitors Targeting Cyclin-Dependent Kinase and Histone Deacetylase for Treating Cancer” (J Med Chem, 2021)
The source made the active and inactive calls. The rule behind the calls is not given here.

Columns and labels:
[1] = target: Cyclin-dependent kinase 2/4/6 (Homo sapiens) (UniProt P11802+P24941+Q00534); assay: Inhibition of CDK2/4/6 in human A549 cells assessed as decrease in Rb phosphorylation measured after 48 hrs by Western blot analysis; assay type: cell-based; conditions: dose 1-10 µM
[2] = test system: A549; assay: Antitumor activity against human A549 cells xenografted in BALB/c nude mouse assessed as reduction in tumor size at 25 to 50 mg/kg, iv administered for 21 consecutive days; assay type: functional, organism-based; conditions: dose 25-50 mg/kg, time 21.0 day
[3] = target: T1, Protein deacetylase HDAC6 (Homo sapiens) (UniProt Q9UBN7); assay: Inhibition of HDAC6 in human K562 cells assessed as increase in alpha tubulin acetylation measured after 48 hrs by Western blot analysis; assay type: cell-based; conditions: dose 1-10 µM
T1 sequence (whole entry): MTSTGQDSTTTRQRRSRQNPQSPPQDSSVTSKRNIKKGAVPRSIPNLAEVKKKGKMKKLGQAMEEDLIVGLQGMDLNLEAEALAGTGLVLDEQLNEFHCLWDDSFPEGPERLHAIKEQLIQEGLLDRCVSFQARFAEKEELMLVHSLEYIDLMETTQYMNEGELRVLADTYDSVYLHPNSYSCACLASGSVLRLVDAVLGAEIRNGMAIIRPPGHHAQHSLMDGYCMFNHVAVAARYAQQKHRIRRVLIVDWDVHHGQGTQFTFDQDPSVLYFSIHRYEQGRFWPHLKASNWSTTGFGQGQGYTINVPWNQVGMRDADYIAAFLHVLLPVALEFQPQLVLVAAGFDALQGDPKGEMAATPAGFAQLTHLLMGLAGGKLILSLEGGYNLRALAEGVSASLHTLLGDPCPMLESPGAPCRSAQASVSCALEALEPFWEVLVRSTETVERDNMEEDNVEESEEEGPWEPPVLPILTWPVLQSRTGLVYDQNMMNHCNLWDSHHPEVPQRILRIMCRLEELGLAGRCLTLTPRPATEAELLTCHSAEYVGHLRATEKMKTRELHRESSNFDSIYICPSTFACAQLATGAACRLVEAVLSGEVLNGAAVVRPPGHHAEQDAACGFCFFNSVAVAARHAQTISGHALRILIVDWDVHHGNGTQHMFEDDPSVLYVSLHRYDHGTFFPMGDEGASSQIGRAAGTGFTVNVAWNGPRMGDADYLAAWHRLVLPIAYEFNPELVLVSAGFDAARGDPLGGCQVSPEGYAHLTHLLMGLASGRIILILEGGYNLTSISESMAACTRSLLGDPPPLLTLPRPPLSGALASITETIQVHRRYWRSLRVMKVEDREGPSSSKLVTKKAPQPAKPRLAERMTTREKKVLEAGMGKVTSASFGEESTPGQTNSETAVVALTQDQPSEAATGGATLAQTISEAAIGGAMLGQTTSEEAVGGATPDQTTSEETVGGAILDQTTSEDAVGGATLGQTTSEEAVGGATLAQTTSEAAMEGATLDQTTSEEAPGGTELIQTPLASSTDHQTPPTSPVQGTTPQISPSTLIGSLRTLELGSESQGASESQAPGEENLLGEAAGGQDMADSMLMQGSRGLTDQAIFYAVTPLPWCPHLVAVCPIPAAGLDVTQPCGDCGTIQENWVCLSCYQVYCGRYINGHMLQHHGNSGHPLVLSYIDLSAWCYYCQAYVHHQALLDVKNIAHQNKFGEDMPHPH

[4] = test system: K562; assay: Induction of apoptosis in human K562 cells assessed as increase in sum of early and late apoptotic cells at 2.5 to 10 uM measured after 48 hrs by Annexin-V/FITC-propidium iodide staining based flow cytometry analysis; assay type: functional, cell-based; conditions: dose 2.5-10 µM
[5] = test system: HeLa; assay: Potency index, ratio of SAHA IC50 to test compound IC50 for antiproliferative activity against human HeLa cells assessed as cell growth inhibition measured after 48 hrs by CCK8 assay; assay type: functional
[6] = test system: A549; assay: Induction of apoptosis in human A549 cells measured after 48 hrs by Annexin-V/FITC-propidium iodide staining based flow cytometry analysis; assay type: functional, cell-based; conditions: dose 2.5-10 µM
[7] = Bioavailability in Sprague-Dawley rat at 50 mg/kg, ip measured up to 24 hrs by LC-MS analysis; assay type: ADME, organism-based; conditions: in vivo
[8] = test system: A549; assay: Antitumor activity against human A549 cells xenografted in BALB/c nude mouse assessed as reduction in tumor weight at 25 to 50 mg/kg, iv administered for 21 consecutive days; assay type: functional, organism-based; conditions: dose 25-50 mg/kg, time 21.0 day
[9] = target: Protein deacetylase HDAC6 (Mus musculus) (UniProt Q9Z2V5); assay: In vivo inhibition of HDAC6 in BALB/c nude mouse xenografted with human A549 cells assessed as increase in alpha tubulin acetylation at 25 to 50 mg/kg, iv administered for 21 consecutive days by immunohistochemical analysis; assay type: functional, organism-based; conditions: dose 25-50 mg/kg, time 21.0 day
[10] = test system: A549; assay: Antitumor activity against human A549 cells xenografted in BALB/c nude mouse assessed as tumor growth inhibition at 50 mg/kg, iv administered for 21 consecutive days relative to control; assay type: functional; conditions: 504 h, time 21 day, read-out: TGI
[11] = target: T1, Protein deacetylase HDAC6 (Homo sapiens); assay: Inhibition of HDAC6 in human MCF7 cells assessed as accumulation of acetylation of H3 at 1 to 10 uM measured after 48 hrs by Western blot analysis; assay type: cell-based; conditions: dose 1-10 µM
[12] = test system: A549; assay: Induction of apoptosis in human A549 cells assessed as downregulation of […] protein measured after 48 hrs by Western blot analysis; assay type: functional, cell-based; conditions: dose 1-10 µM
[13] = test system: K562; assay: Cycle arrest in human K562 cells assessed as increase in cell population at S phase measured after 24 hrs by propidium iodide/RNase staining based flow cytometry; assay type: functional; conditions: dose 2.5-10 µM
[14] = test system: A549; assay: Antitumor activity against human A549 cells xenografted in BALB/c nude mouse assessed as tumor growth inhibition at 25 mg/kg, iv administered for 21 consecutive days relative to control; assay type: functional; conditions: 504 h, time 21 day, read-out: TGI
[15] = Toxicity in BALB/c nude mouse xenografted with human A549 cells assessed as body weight loss at 25 to 50 mg/kg, iv administered for 21 consecutive days; assay type: organism-based; conditions: in vivo, 504 h, dose 25-50 mg/kg, time 21 day
[16] = test system: A549; assay: Induction of apoptosis in human A549 cells assessed as downregulation of Mcl-1 protein measured after 48 hrs by Western blot analysis; assay type: functional, cell-based; conditions: dose 1-10 µM
[17] = target: T1, Protein deacetylase HDAC6 (Homo sapiens); assay: Inhibition of HDAC6 in human MCF7 cells assessed as increase in alpha tubulin acetylation measured after 48 hrs by Western blot analysis; assay type: cell-based; conditions: dose 1-10 µM
[18] = test system: Mus musculus; assay: In vivo inhibition of CDK2/4/6 in BALB/c nude mouse xenografted with human A549 cells assessed as reduction in Rb phosphorylation at 25 to 50 mg/kg, iv administered for 21 consecutive days by immunohistochemical analysis; assay type: functional, organism-based; conditions: dose 25-50 mg/kg
[19] = target: T1, Protein deacetylase HDAC6 (Homo sapiens); assay: Inhibition of HDAC6 in human K562 cells assessed as accumulation of acetylation of […] at 1 to 10 uM measured after 48 hrs by Western blot analysis; assay type: cell-based; conditions: dose 1-10 µM
[20] = Toxicity in BALB/c nude mouse xenografted with human A549 cells assessed as adverse effect at 25 to 50 mg/kg, iv administered for 21 consecutive days; assay type: organism-based; conditions: in vivo, 504 h, dose 25-50 mg/kg, time 21 day
[21] = test system: A549; assay: Antitumor activity against human A549 cells xenografted in BALB/c nude mouse assessed as reduction in tumor weight at 0.75 to 1.5 mg, IT (intratumoral) administered for 21 consecutive days; assay type: functional, cell-based; conditions: dose 0.75-1.5 mg, time 21.0 day

Protein deacetylase HDAC6 (Mus musculus), sequence (Q9Z2V5 whole entry): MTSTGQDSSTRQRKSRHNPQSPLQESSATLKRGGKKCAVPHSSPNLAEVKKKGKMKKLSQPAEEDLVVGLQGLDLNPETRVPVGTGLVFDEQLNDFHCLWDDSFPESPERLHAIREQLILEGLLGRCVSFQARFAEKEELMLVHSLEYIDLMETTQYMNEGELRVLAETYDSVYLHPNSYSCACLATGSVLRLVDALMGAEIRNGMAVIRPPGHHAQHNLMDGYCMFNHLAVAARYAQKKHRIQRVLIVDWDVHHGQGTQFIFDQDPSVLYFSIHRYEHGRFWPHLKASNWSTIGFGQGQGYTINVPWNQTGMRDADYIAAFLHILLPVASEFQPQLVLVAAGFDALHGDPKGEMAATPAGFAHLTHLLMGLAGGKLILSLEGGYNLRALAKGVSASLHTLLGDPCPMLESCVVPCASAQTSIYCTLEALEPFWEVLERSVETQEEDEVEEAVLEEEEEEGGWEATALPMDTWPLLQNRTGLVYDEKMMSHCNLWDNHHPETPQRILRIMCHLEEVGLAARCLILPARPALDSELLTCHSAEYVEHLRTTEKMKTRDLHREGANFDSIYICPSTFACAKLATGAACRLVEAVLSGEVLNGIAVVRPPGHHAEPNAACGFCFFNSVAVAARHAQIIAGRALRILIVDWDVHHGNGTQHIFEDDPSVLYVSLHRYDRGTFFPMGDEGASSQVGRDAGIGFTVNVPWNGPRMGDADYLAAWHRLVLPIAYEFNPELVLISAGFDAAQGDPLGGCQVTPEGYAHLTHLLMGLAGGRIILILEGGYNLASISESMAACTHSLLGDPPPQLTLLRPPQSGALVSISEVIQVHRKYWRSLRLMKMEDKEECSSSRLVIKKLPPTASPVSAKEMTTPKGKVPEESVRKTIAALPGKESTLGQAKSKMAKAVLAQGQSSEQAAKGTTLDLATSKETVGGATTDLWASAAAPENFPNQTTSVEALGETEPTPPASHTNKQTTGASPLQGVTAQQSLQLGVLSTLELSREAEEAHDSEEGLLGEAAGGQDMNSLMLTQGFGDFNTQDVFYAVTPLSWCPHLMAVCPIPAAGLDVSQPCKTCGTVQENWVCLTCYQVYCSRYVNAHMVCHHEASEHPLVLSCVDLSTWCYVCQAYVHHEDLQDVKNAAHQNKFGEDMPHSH

## O=C(CCCO/N=C1/C(=C2/C(=O)Nc3ccccc32)Nc2ccccc21)NO
[1]
  inhibition: Dose-Dependent Effect
[2]
  Activity: Active
[3]
  inhibition: Dose-Dependent Effect
[4]
  Activity: Active
[5]
  Ratio IC50: 3
[6]
  Activity: Dose-Dependent Effect
[7]
  bioavailability: 13%
[8]
  Activity: Active
[9]
  inhibition: Active
[10]
  inhibition in vivo at 50 mg/kg: 66.6%
[11]
  inhibition: inactive
[12]
  Activity: Dose-Dependent Effect
[13]
  Activity: Dose-Dependent Effect
[14]
  inhibition in vivo at 25 mg/kg: 43.2%
[15]
  Activity: Non-Toxic
[16]
  Activity: Dose-Dependent Effect
[17]
  inhibition: Dose-Dependent Effect
[18]
  inhibition: Active
[19]
  inhibition: inactive
[20]
  Activity: Non-Toxic
[21]
  Activity: Active
